Laboratory results from US7951789B2 (priority 2006, dated 2011).
pEC50: −log10 of the molar value. Like-named read-outs stand apart in the source and are kept apart here.

Columns and labels:
[1] = Cytotoxicity evaluation in GS4.1 cells (Cell Titer 96 AQueous One Solution); format: cell-based; details: human; for CC50: 72 hours
Procedure: (§1) Huh-7 cells containing HCV Conl subgenomic replicon (GS4.1 cells), (C. Seeger; Fox Chase University, Philadelphia, Pa., USA), are grown in Dulbecco's Modified Eagle Medium (DMEM) supplemented with 10% fetal bovine serum (FBS), 2 mM L-glutamine, 110 mg/L sodium pyruvate, 1×non-essential amino acids, 100 U/mL penicillin-streptomycin and 0.5 mg/mL G418 (Invitrogen). For dose-response testing, the cells are seeded in 96-well plates at 7.5×10^3 cells/well in a volume of 50 μL and incubated at 37° C./5% CO2. Three hours after plating, 50 μL of ten 2-fold serial dilutions of compounds (highest concentration, 75 μM) are added and cell cultures were incubated at 37° C./5% CO2 in the presence of 0.5% DMSO. Alternatively, compounds are tested at a single concentration of 15 μM. In all cases, Huh-7 cells lacking the HCV replicon served as negative control. The cells are incubated in the presence of compounds for 72 hours after which they were monitored for expression of the NS4A protein by enzyme-linked immunosorbent assay (ELISA). For this, the plates were then fixed for 1 min with 1:1 acetone:methanol, washed twice with phosphate-buffered saline (PBS), 0.1% Tween 20, blocked for 1 hour at room temperature with TNE buffer containing 10% FBS and then incubated for 2 h at 37° C. with the anti-NS4A mouse monoclonal antibody A-236 (ViroGen) diluted in the same buffer. After washing three times with PBS, 0.1% Tween 20, the cells are incubated 1 hour at 37° C. with anti-mouse immunoglobulin G-peroxidase conjugate in TNE, 10% FBS. After washing as described above, the reaction is developed with O-phenylenediamine (Zymed). The reaction is stopped after 30 minutes with […] and the absorbance is read at 492 nm using a Sunrise Tecan spectrophotometer. EC50 values are determined from the % inhibition versus concentration data using a sigmoidal non-linear regression analysis based on four parameters with Tecan Magellan software. […] For cytotoxicity evaluation, GS4.1 cells are treated with compounds as described above and cellular viability was monitored using a Cell Titer 96 AQueous One Solution Cell Proliferation Assay (Promega). CC50 values are determined from the % cytotoxicity versus concentration data with Tecan Magellan software as described above.

[2] = system: HCV Conl subgenomic replicon (GS4.1 cells); assay: HCV replicon assay (NS4A ELISA, HCV ELISA 2); format: cell-based; details: Hepatitis C virus; for pEC50: GS4.1 cells, 72 hours, NS4A ELISA, read-out: HCV ELISA 2 EC50; for EC50: 72 h, read-out: HCV ELISA 2 EC50 (μM)
Procedure: as §1

Structure (SMILES)	CC50 [1]	pEC50 [2]	CC50 at 72 h [1]	EC50 [2]
C[C@@]1(O)[C@H](O)[C@@H](CO)O[C@H]1n1cc(F)c2c(N)ncnc21 [Example E810, 2′-C-methyl-7-deaza-7-fluoro-adenosine, reference compound]	> 75 µM	> 6.00		
C[C@@]1(O)[C@H](O)[C@@H](CO)O[C@H]1n1cnc2c(=O)[nH]cnc21 [Example A608, 2′-C-methylinosine, reference compound]	> 75 µM	< 5.00		
CC(C)(CO)C(=O)SCCOP(=O)(NCc1ccccc1)OC[C@H]1O[C@@H](n2cnc3c(=O)[nH]cnc32)[C@](C)(O)[C@@H]1O (mixture of isomers) [Example B186, Hydroxy-tBuSATE N-benzylphosphoramidate Derivative of 2′-C-methylinosine]	> 75 µM	5.00 to 6.00		
C[C@@]1(O)[C@H](O)[C@@H](CO)O[C@H]1n1cnc2c(Cl)ncnc21 [Example A849, 9-[2-C-methyl-β-ribofuranosyl]-6-chloropurine, reference compound]	> 75 µM	> 6.00		
C#C[C@@]1(F)[C@H](O)[C@@H](CO)O[C@H]1n1cnc2c(=O)[nH]c(N)nc21 [Example D961]	> 75 µM	< 5.00		
CCCCN(CCCC)P(=O)(OCCSC(=O)C(C)(C)CO)OC[C@H]1O[C@@H](n2ccc(N)nc2=O)[C@](C)(O)[C@@H]1O (mixture of isomers) [Example B244, Hydroxy-tBuSATE N,N-(dibutylamine)phosphoramidate Derivative of 2′-C-methylcytidine]			> 75 µM	> 10 µM
CC(C)(CO)C(=O)SCCOP(=O)(NCc1ccccc1)OC[C@H]1O[C@@H](n2ccc(=O)[nH]c2=O)[C@](C)(O)[C@@H]1O (stereo partly drawn) [Example B229, Hydroxy-tBuSATE N-benzylphosphoramidate Derivative of 2′-C-methyluridine]	> 75 µM	5.00 to 6.00		
CC(C)(CO)C(=O)SCCOP(=O)(NCc1ccc(C(F)(F)F)cc1)OC[C@H]1O[C@@H](n2cnc3c(=O)[nH]c(N)nc32)[C@](C)(O)[C@@H]1O (stereo in doubt) [Example B242, O-(Hydroxy-tert-butyl-S-acyl-2-thioethyl)-2′-C-methylguanosin-5′-yl-N-(4-trifluoromethyl)-benzylaminyl Phosphate]	> 75 µM	> 6.00		
CC(=O)Nc1ccn([C@@H]2O[C@H](COP(=O)(NCc3ccccc3)OCCSC(=O)C(C)(C)CO)[C@@H](O)[C@@]2(C)O)c(=O)n1 (stereo in doubt) [Example B183, Hydroxy-tBuSATE N-benzylphosphoramidate Derivative of 2′-C-methyl-NH-4-acetyl-cytidine]	> 75 µM	< 5.00		
CCCCCCCCN(C)P(=O)(OCCSC(=O)C(C)(C)CO)OC[C@H]1O[C@@H](n2ccc(N)nc2=O)[C@](C)(O)[C@@H]1O (stereo in doubt) [Example B204, Hydroxy-tBuSATE N-(n-methyl-n-octyl-amine)phosphosphoramidate Derivative of 2′-C-methylcytidine]			> 75 µM	1 to 10 µM
CN(Cc1ccccc1)P(=O)(OCCSC(=O)C(C)(C)CO)OC[C@H]1O[C@@H](n2ccc(N)nc2=O)[C@](C)(O)[C@@H]1O (mixture of isomers) [Example B308, Hydroxy-tBuSATE N-methylbenzylphosphosphoramidate Derivative of 2′-C-methyl-cytidine]			> 75 µM	1 to 10 µM
C[C@@]1(O)[C@H](O)[C@@H](CO)O[C@H]1n1cnc2c(=O)[nH]c(N)nc21 [A844 (NM 108), 2′-C-methylguanosine, reference compound]	> 75 µM	5.00 to 6.00		
CC(C)(CO)C(=O)SCCOP(=O)(NCc1ccccc1)OC[C@H]1O[C@@H](n2cnc3c(Cl)ncnc32)[C@](C)(O)[C@@H]1O (stereo partly drawn) [Example B396, Hydroxy-tBuSATE N-benzylphosphoramidate Derivative of 9-[2-C-methyl-β-ribofuranosyl]-6-chloropurine]	≤ 75 µM	> 6.00		
CC(C)(CO)C(=O)SCCOP(=O)(NCc1ccccc1)OC[C@H]1O[C@@H](n2cnc3c(N)ncnc32)[C@](C)(O)[C@@H]1O (mixture of isomers) [Example B263, Hydroxy-tBuSATE N-benzylphosphoramidate Derivative of 2′-C-methyladenosine]	> 75 µM	5.00 to 6.00		
C#C[C@@]1(F)[C@H](O)[C@@H](COP(=O)(NCc2ccccc2)OCCSC(=O)C(C)(C)CO)O[C@H]1n1cnc2c(=O)[nH]c(N)nc21 (stereo in doubt) [Example B503, N-Benzylaminyl-{9-[(2R)2-deoxy-2-fluoro-2-C-ethynyl-β-D-erythro-furanosyl]-guanin}-5′-yl-O-(hydroxy-tert-butyl-S-acyl-2-thioethyl) Phosphate]	> 75 µM	5.00 to 6.00		
C[C@@]1(O)[C@H](O)[C@@H](CO)O[C@H]1n1ccc(=O)[nH]c1=O [C809 (NM106), 2′-C-methyluridine, reference compound]	> 75 µM	< 5.00		
CC(C)(CO)C(=O)SCCOP(=O)(NCc1ccc(C(F)(F)F)cc1)OC[C@H]1O[C@@H](n2ccc(N)nc2=O)[C@](C)(O)[C@@H]1O (stereo in doubt) [Example B399, Hydroxy-tBuSATE N-(4-(trifluoromethyl)benzyl)phosphosphoramidate Derivative of 2′-C-methylcytidine]	> 75 µM	5.00 to 6.00		
CC(C)(CO)C(=O)SCCOP(=O)(NC1CCCCC1)OC[C@H]1O[C@@H](n2ccc(N)nc2=O)[C@](C)(O)[C@@H]1O (stereo in doubt) [Example B354, Hydroxy-tBuSATE N-cyclohexylaminephosphosphoramidate Derivative of 2′-C-methyl-cytidine]	> 75 µM	5.00 to 6.00		
CC(C)(CO)C(=O)SCCOP(=O)(NCc1ccccc1)OC[C@H]1O[C@@H](n2cc(F)c3c(N)ncnc32)[C@](C)(O)[C@@H]1O (mixture of isomers) [Example B436, Hydroxy-tBuSATE N-benzylphosphoramidate Derivative of 2′-C-methyl-7-deaza-7-fluoro-adenosine]	> 75 µM	5.00 to 6.00		
CC(C)(CO)C(=O)SCCOP(=O)(NCc1ccccc1C(F)(F)F)OC[C@H]1O[C@@H](n2ccc(N)nc2=O)[C@](C)(O)[C@@H]1O (stereo in doubt) [Example B187, Hydroxy-tBuSATE N-(2-(trifluoromethyl)benzyl)phosphosphoramidate Derivative of 2′-C-methylcytidine]	> 75 µM	5.00 to 6.00		
CC(=O)O[C@@H]1[C@@H](COP(=O)(NCc2ccccc2)OCCSC(=O)C(C)(C)CO)O[C@@H](n2ccc(N)nc2=O)[C@]1(C)OC(C)=O (stereo in doubt) [Example B390, Hydroxy-tBuSATE N-benzylphosphoramidate Derivative of 2′-C-methyl-2′,3′-di-O-acetyl-cytidine]	> 75 µM	< 5.00		
C[C@@]1(O)[C@H](O)[C@@H](CO)O[C@H]1n1cnc2c(N)ncnc21 [A374 (NM80), 2′-C-methyladenosine, reference compound]	≤ 75 µM	> 6.00		
CC(C)(CO)C(=O)SCCOP(=O)(OC[C@H]1O[C@@H](n2ccc(N)nc2=O)[C@](C)(O)[C@@H]1O)N1CCCCC1 (mixture of isomers) [Example B353, Hydroxy-tBuSATE N-piperidinephosphosphoramidate Derivative of 2′-C-methyl-cytidine]			> 75 µM	> 10 µM
C[C@@]1(O)[C@H](O)[C@@H](CO)O[C@H]1n1ccc(N)nc1=O [A634 (NM107), 2′methyl cytidine, reference compound]	> 75 µM	5.00 to 6.00		
CC(C)(CO)C(=O)SCCOP(=O)(NCc1ccccc1)OC[C@H]1O[C@@H](n2cnc3c(=O)[nH]c(N)nc32)[C@](C)(O)[C@@H]1O (mixture of isomers) [Example B299, Hydroxy-tBuSATE N-benzylphosphoramidate Derivative of 2′-C-methylguanosine]	> 75 µM	> 6.00		
CC(C)(CO)C(=O)SCCOP(=O)(OC[C@H]1O[C@@H](n2ccc(N)nc2=O)[C@](C)(O)[C@@H]1O)N1CCOCC1 (mixture of isomers) [Example B391, Hydroxy-tBuSATE N-morpholinophosphosphoramidate Derivative of 2′-C-methylcytidine]			> 75 µM	> 10 µM
CC(C)C(N)C(=O)O[C@@H]1[C@@H](COP(=O)(NCc2ccccc2)OCCSC(=O)C(C)(C)CO)O[C@@H](n2ccc(N)nc2=O)[C@]1(C)O (stereo partly drawn) [Example B234, Hydroxy-tBuSATE N-benzylphosphoramidate Derivative of 3′-O-L-valinyl-2′-C-methylcytidine]	> 75 µM	5.00 to 6.00		
